Data set [1] can be described thus: Compound cytotoxicity, XTT-based colorimetric assay. Format: cell-based. Conditions: human, uninfected MT2 cells, day 4, XTT. Summed up: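 Run under the antiviral-assay protocol but without virus. Viability was read on day 4 and CC50 values were derived from the readout.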
(In general: Formazan colour is commonly taken as a measure of viable cells.)

Data set [2] has as its system recombinant NL4-3 virus (nef section replaced with Renilla luciferase gene) in MT-2 cells. Put plainly: HIV cell culture assay (antiviral activity, luciferase readout). Conditions: Renilla, NL43, MT-2 cells infected for 4-5 days with recombinant NL4-3 Renilla luciferase virus, serial dilutions of compound. The format is cell-based. The essentials:
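EC50 was derived by median-effect curve fitting of luciferase activity. The signal comes from MT-2 cells infected for 4–5 days with 293T-produced NL4-3 reporter virus, nef partly replaced by Renilla luciferase, in the presence of serially diluted compound.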

Bounds are passed on as bounds.

As a reminder, the CC50 is the concentration at which the toxic effect on the cells reaches its halfway point. Lower therefore signals harm at low concentration. The EC50 is the concentration giving half of the maximal effect.

In the case of `Cn1nc(NS(C)(=O)=O)c2c(Cl)ccc(-n3c([C@H](Cc4cc(F)cc(F)c4)NC(=O)Cn4nc(C(F)F)c5c4C(F)(F)[C@@H]4C[C@H]54)nc4cc(-c5cccnc5)ccc4c3=O)c21` (atropisomer, axis not shown; (aR)) [Example 71, N-((S)-1-(3-(4-chloro-1-methyl-3-(methylsulfonamido)-1H-indazol-7-yl)-4-oxo-7-(pyridin-3-yl)-3,4-dihydroquinazolin-2-yl)-2-(3,5-difluorophenyl)ethyl)-2-((3bS,4aR)-3-(difluoromethyl)-5,5-difluoro-3b,4,4a,5-tetrahydro-1H-cyclopropa[3,4]cyclopenta[1,2-c]pyrazol-1-yl)acetamide], the CC50 at 4 day in data set [1] is more than 1000 nM. The EC50 in data set [2] was determined as 0.18 nM.

In data set [1], `Cn1nc(NS(C)(=O)=O)c2c(Cl)ccc(-n3c([C@H](Cc4cc(F)cc(F)c4)NC(=O)Cn4nc(C(F)F)c5c4C(F)(F)[C@@H]4C[C@H]54)nc4cc(-c5ccncc5)ccc4c3=O)c21` (atropisomer, axis not shown; (aR)) [Example 118, N-((S)-1-(3-(4-chloro-1-methyl-3-(methylsulfonamido)-1H-indazol-7-yl)-4-oxo-7-(pyridin-4-yl)-3,4-dihydroquinazolin-2-yl)-2-(3,5-difluorophenyl)ethyl)-2-((3bS,4aR)-3-(difluoromethyl)-5,5-difluoro-3b,4,4a,5-tetrahydro-1H-cyclopropa[3,4]cyclopenta[1,2-c]pyrazol-1-yl)acetamide] showed a CC50 at 4 day of more than 500 nM. In addition, the EC50 in data set [2] came to 0.16 nM.

In the case of `Cn1nc(NS(C)(=O)=O)c2c(Cl)ccc(-n3c([C@H](Cc4cc(F)cc(F)c4)NC(=O)Cn4nc(C(F)F)c5c4C(F)(F)[C@@H]4C[C@H]54)nc4cc(-c5ccc(F)c(C(=O)O)c5)ccc4c3=O)c21` (atropisomer, axis not shown; (aR)) [Example 38, 5-(3-(4-chloro-1-methyl-3-(methylsulfonamido)-1H-indazol-7-yl)-2-((S)-1-(2-((3bS,4aR)-3-(difluoromethyl)-5,5-difluoro-3b,4,4a,5-tetrahydro-1H-cyclopropa[3,4]cyclopenta[1,2-c]pyrazol-1-yl)acetamido)-2-(3,5-difluorophenyl)ethyl)-4-oxo-3,4-dihydroquinazolin-7-yl)-2-fluorobenzoic acid], the CC50 at 4 day in data set [1] was more than 1000 nM. The EC50 in data set [2] was 10 nM.

Consider `O=C(Cn1ccc(C2CC2)n1)N[C@@H](Cc1cc(F)cc(F)c1)c1nc2cc(-c3ccccc3-c3ccccc3)ccc2c(=O)n1-c1ccc(S(=O)(=O)N2CCOCC2)cc1` [Example 146, (S)-N-(1-(7-([1,1′-biphenyl]-2-yl)-3-(4-(morpholinosulfonyl)phenyl)-4-oxo-3,4-dihydroquinazolin-2-yl)-2-(3,5-difluorophenyl)ethyl)-2-(3-cyclopropyl-1H-pyrazol-1-yl)acetamide], for which the cytotoxic concentration (CC50) at 4 day in data set [1] was more than 500 nM. For the same compound, the EC50 in data set [2] was 69 nM.

Regarding `Cn1nc(NS(C)(=O)=O)c2c(Cl)ccc(-n3c([C@H](Cc4cc(F)cc(F)c4)NC(=O)Cn4nc(C(F)F)c5c4C(F)(F)[C@@H]4C[C@H]54)nc4cc(-c5cc(F)cc(F)c5)ccc4c3=O)c21` (atropisomer, axis not shown; (aR)) [Example 103, N-((S)-1-(3-(4-chloro-1-methyl-3-(methylsulfonamido)-1H-indazol-7-yl)-7-(3,5-difluorophenyl)-4-oxo-3,4-dihydroquinazolin-2-yl)-2-(3,5-difluorophenyl)ethyl)-2-((3bS,4aR)-3-(difluoromethyl)-5,5-difluoro-3b,4,4a,5-tetrahydro-1H-cyclopropa[3,4]cyclopenta[1,2-c]pyrazol-1-yl)acetamide], the CC50 at 4 day in data set [1] is more than 1000 nM. The EC50 in data set [2] amounted to 0.88 nM.

`Cc1nccnc1-c1ccc2c(=O)n(-c3ccc(Cl)c4c(NS(=O)(=O)C5CC5)nn(CC(F)F)c34)c([C@H](Cc3cc(F)cc(F)c3)NC(=O)Cn3nc(C(F)F)cc3C(F)F)nc2c1` [Example 191, (S)-2-(3,5-bis(difluoromethyl)-1H-pyrazol-1-yl)-N-(1-(3-(4-chloro-3-(cyclopropanesulfonamido)-1-(2,2-difluoroethyl)-1H-indazol-7-yl)-7-(3-methylpyrazin-2-yl)-4-oxo-3,4-dihydroquinazolin-2-yl)-2-(3,5-difluorophenyl)ethyl)acetamide]: the CC50 at 4 day in data set [1] was more than 500 nM. In addition, the EC50 in data set [2] is 1.5 nM.

`Cc1cc(F)ccc1-c1ccc2c(=O)n(-c3ccc(S(=O)(=O)N4CCOCC4)cc3)c([C@H](Cc3cc(F)cc(F)c3)NC(=O)Cn3nc(C(F)F)c4c3C(F)(F)[C@@H]3C[C@H]43)nc2c1` [Example 150, 2-((3bS,4aR)-3-(difluoromethyl)-5,5-difluoro-3b,4,4a,5-tetrahydro-1H-cyclopropa[3,4]cyclopenta[1,2-c]pyrazol-1-yl)-N-((S)-2-(3,5-difluorophenyl)-1-(7-(4-fluoro-2-methylphenyl)-3-(4-(morpholinosulfonyl)phenyl)-4-oxo-3,4-dihydroquinazolin-2-yl)ethyl)acetamide] showed a CC50 at 4 day in data set [1] of more than 500 nM. Besides, the EC50 in data set [2] was determined as 11 nM.

Regarding `Cc1ncc(-c2ccc3c(=O)n(-c4ccc(Cl)c5c(NS(C)(=O)=O)nn(CC(F)(F)F)c45)c([C@H](Cc4cc(F)cc(F)c4)NC(=O)Cn4nc(C(F)F)c5c4C(F)(F)[C@@H]4C[C@H]54)nc3c2)cn1` [Example 166, N-((S)-1-(3-(4-chloro-3-(methylsulfonamido)-1-(2,2,2-trifluoroethyl)-1H-indazol-7-yl)-7-(2-methylpyrimidin-5-yl)-4-oxo-3,4-dihydroquinazolin-2-yl)-2-(3,5-difluorophenyl)ethyl)-2-((3bS,4aR)-3-(difluoromethyl)-5,5-difluoro-3b,4,4a,5-tetrahydro-1H-cyclopropa[3,4]cyclopenta[1,2-c]pyrazol-1-yl)acetamide], the CC50 at 4 day in data set [1] was more than 500 nM. In addition, the EC50 in data set [2] amounted to 0.037 nM.

`CS(=O)(=O)Nc1nn(CC(F)(F)F)c2c(-n3c([C@H](Cc4cc(F)cc(F)c4)NC(=O)Cn4nc(C(F)F)c5c4C(F)(F)[C@@H]4C[C@H]54)nc4cc(-c5ncccn5)ccc4c3=O)ccc(Cl)c12` [Example 163, N-((S)-1-(3-(4-chloro-3-(methylsulfonamido)-1-(2,2,2-trifluoroethyl)-1H-indazol-7-yl)-4-oxo-7-(pyrimidin-2-yl)-3,4-dihydroquinazolin-2-yl)-2-(3,5-difluorophenyl)ethyl)-2-((3bS,4aR)-3-(difluoromethyl)-5,5-difluoro-3b,4,4a,5-tetrahydro-1H-cyclopropa[3,4]cyclopenta[1,2-c]pyrazol-1-yl)acetamide] showed a CC50 at 4 day in data set [1] of more than 500 nM. Moreover, the EC50 in data set [2] stood at 0.046 nM.

In data set [1], `Cn1nc(NS(C)(=O)=O)c2c(Cl)ccc(-n3c([C@H](Cc4cc(F)cc(F)c4)NC(=O)Cn4nc(C(F)F)c5c4C(F)(F)[C@@H]4C[C@H]54)nc4cc(-c5ccc(-c6ccccc6)cc5)ccc4c3=O)c21` (atropisomer, axis not shown; (aR)) [Example 101, N-((S)-1-(7-([1,1′-biphenyl]-4-yl)-3-(4-chloro-1-methyl-3-(methylsulfonamido)-1H-indazol-7-yl)-4-oxo-3,4-dihydroquinazolin-2-yl)-2-(3,5-difluorophenyl)ethyl)-2-((3bS,4aR)-3-(difluoromethyl)-5,5-difluoro-3b,4,4a,5-tetrahydro-1H-cyclopropa[3,4]cyclopenta[1,2-c]pyrazol-1-yl)acetamide] showed a CC50 at 4 day of more than 1000 nM. The EC50 in data set [2] worked out at 62 nM.

`Cn1nc(NS(C)(=O)=O)c2c(Cl)ccc(-n3c([C@H](Cc4cc(F)cc(F)c4)NC(=O)Cn4nc(C(F)F)c5c4C(F)(F)[C@@H]4C[C@H]54)nc4cc(-c5ccc6c(c5)CCCO6)ccc4c3=O)c21` (atropisomer, axis not shown; (aR)) [Example 28, N-((S)-1-(3-(4-chloro-1-methyl-3-(methylsulfonamido)-1H-indazol-7-yl)-7-(chroman-6-yl)-4-oxo-3,4-dihydroquinazolin-2-yl)-2-(3,5-difluorophenyl)ethyl)-2-((3bS,4aR)-3-(difluoromethyl)-5,5-difluoro-3b,4,4a,5-tetrahydro-1H-cyclopropa[3,4]cyclopenta[1,2-c]pyrazol-1-yl)acetamide] gave a CC50 at 4 day in data set [1] of more than 1000 nM. For the same compound, in data set [2], the EC50 stood at 3.2 nM.

Take `Cn1nc(NS(C)(=O)=O)c2c(Cl)ccc(-n3c([C@H](Cc4cc(F)cc(F)c4)NC(=O)Cn4nc(C(F)F)c5c4C(F)(F)[C@@H]4C[C@H]54)nc4cc(-c5ccc(Cl)c(C(=O)O)c5)ccc4c3=O)c21` (atropisomer, axis not shown; (aR)) [Example 57]: in data set [1], the CC50 at 4 day is more than 1000 nM. Moreover, the EC50 in data set [2] was determined as 17 nM.

For the compound `Cn1nc(NS(C)(=O)=O)c2c(Cl)ccc(-n3c([C@H](Cc4cc(F)cc(F)c4)NC(=O)Cn4nc(C(F)F)c5c4C(F)(F)[C@@H]4C[C@H]54)nc4cc(-c5ccccn5)ccc4c3=O)c21` (atropisomer, axis not shown; (aR)) [Example 87, N-((S)-1-(3-(4-chloro-1-methyl-3-(methylsulfonamido)-1H-indazol-7-yl)-4-oxo-7-(pyridin-2-yl)-3,4-dihydroquinazolin-2-yl)-2-(3,5-difluorophenyl)ethyl)-2-((3bS,4aR)-3-(difluoromethyl)-5,5-difluoro-3b,4,4a,5-tetrahydro-1H-cyclopropa[3,4]cyclopenta[1,2-c]pyrazol-1-yl)acetamide], the CC50 at 4 day in data set [1] is more than 1000 nM. In data set [2], the EC50 came to 0.09 nM.

Consider `Cc1cc(F)ccc1-c1ccc2c(=O)n(-c3ccc(S(=O)(=O)N4CCOCC4)cc3)c([C@H](Cc3cc(F)cc(F)c3)NC(=O)Cn3ccc(C4CC4)n3)nc2c1` [Example 102, (S)-2-(3-cyclopropyl-1H-pyrazol-1-yl)-N-(2-(3,5-difluorophenyl)-1-(7-(4-fluoro-2-methylphenyl)-3-(4-(morpholinosulfonyl)phenyl)-4-oxo-3,4-dihydroquinazolin-2-yl)ethyl)acetamide], for which the CC50 at 4 day in data set [1] is more than 1000 nM. Further, the EC50 in data set [2] was found to be 48 nM.

Values taken from US11505543B2, “4-oxo-3,4-dihydroquinazoline compounds as inhibitors of human immunodeficiency virus replication” (VIIV HEALTHCARE UK (NO.5) LIMITED, priority 2018, dated 2022).
